Source: US9499493B2, “2,4-pyrimidinediamine compounds and their uses” (Rigel Pharmaceuticals, Inc., priority 2002, dated 2016)

How the values were obtained:
[1] = tested on: cultured human mast cells (CHMC); assay: CHMC low cell density IgE activation: tryptase assay; format: cell-based; settings: anti-IgE
Method in brief: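 Cells pelleted, taken up in warm MT, plated at 1000-1500/well, held 1 hr 37° C. Anti-IgE added, 30 min 37° C. Plates spun; supernatant mixed with tryptase substrate, 30 min RT.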

[2] = tested on: cultured human mast cells (CHMC); assay: CHMC low cell density ionomycin activation: tryptase assay; format: cell-based

| SMILES | IC50 [1] | IC50 [2] | IC50 ([1]; Homo sapiens, Mast cell) | IC50 ([2]; Homo sapiens, Mast cell) |
| --- | --- | --- | --- | --- |
| COC(=O)c1cc2cc(Nc3ncc(F)c(Nc4ccc(OCc5nc(C)no5)cc4)n3)ccc2o1 [R935146, 5-Fluoro-N2-(2-methoxycarbonylbenzofura-5-yl)-N4-[4-(3-methyl-1,2,4-oxadiazol-5-yl)methyleneoxyphenyl]-2,4-pyrimidinediamine] | 3.8 µM | > 10 µM | – | – |
| CCOC(=O)CNc1cccc(Nc2ncc(F)c(Nc3cccc(O)c3)n2)c1 [R950216] | – | – | 0.327 µM | > 10 µM |
| CCOC(=O)COc1cccc(Nc2ncc(C(=O)OCC)c(Nc3cccc(O)c3)n2)c1 [R926798, N4-(3-Hydroxyphenyl)-N2-(3-ethoxycarbonylmethyleneoxyphenyl)-5-ethoxycarbonyl-2,4-pyrimidinediamine] | 2.35 µM | 5.87 µM | – | – |
| OCCCn1ncc2ccc(Nc3ncc(F)c(Nc4ccc5oc(CO)cc5c4)n3)cc21 [R935308, 5-Fluoro-N4-(2-hydroxymethylbenzofur-5-yl)-N2-[1-(3-hydroxypropyl)indazoline-6-yl]-2,4-pyrimidinediamine] | 0.275 µM | > 10 µM | – | – |
| Oc1cccc(Nc2nc(NC3CCN(Cc4ccccc4)CC3)ncc2F)c1 [R940264, N2-[4-(N-Benzylpiperidino)]-5-fluoro-N4-(3-hydroxyphenyl)-2,4-pyrimidinediamine] | 10 µM | > 10 µM | – | – |
| O=C(COc1cccc(Nc2ncc(F)c(Nc3cccc(O)c3)n2)c1)NCCO [R926506, 5-Fluoro-N4-(3-hydroxyphenyl)-N2-[3-(N-2-hydroxyethylamino)carbonylmethyleneoxyphenyl]-2,4-pyrimidinediamine] | 0.343 µM | > 10 µM | – | – |
| Cc1nc(COc2cccc(Nc3nc(Nc4ccc(OCC(N)=O)cc4)ncc3F)c2)no1 [R945133, N2-[4-(Aminocarbonylmethoxy)phenyl]-5-fluoro-N4-[3-(5-methyl-1,2,4-oxadiazol-3-yl)methyleneoxyphenyl]-2,4-pyrimidinediamine] | 1.06 µM | > 10 µM | – | – |
| CCOC(=O)c1cnc(Nc2cccc(O)c2)nc1N[C@@H](Cc1ccccc1)C(=O)OCC [R926528, 5-Ethoxycarbonyl-N2-(3-hydroxyphenyl)-4-[N-(L)-phenylalanineethyl ester]-2-pyrimidineamine] | 8.75 µM | > 10 µM | – | – |
| CNC(=O)c1cc(COc2cccc(Nc3ncc(F)c(Nc4ccc5c(c4)OCCO5)n3)c2)co1 [R935213, N4-(3,4-ethylenedioxyphenyl)-5-fluoro-N2-[3-(2-(N-methylamino)carbonyl-fur-4-yl)methyleneoxyphenyl]-2,4-pyrimidinediamine] | 0.619 µM | 10 µM | – | – |
| CC1(C)COC(COc2ccc(Nc3ncc(F)c(Nc4cccc(O)c4)n3)cc2)=N1 [R926702, 5-Fluoro-N4-(3-hydroxyphenyl)-N2-[4-[(4,4-dimethyl-3-oxazolin-2-yl)methyleneoxy]phenyl]-2,4-pyrimidinediamine] | 0.886 µM | > 10 µM | – | – |
| COC(=O)COc1ccc(Nc2ncc(F)c(Nc3ccc(OCC(=O)OC(C)(C)C)cc3)n2)cc1 [R926572] | 1.8 µM | 6.08 µM | – | – |
| CCOC(=O)COc1cccc(Nc2ncc(F)c(Nc3ccc(-n4cnc(Cl)c4Cl)cc3)n2)c1 [R926809, N4-[4-(4,5-Dichloro-1H-imidazol-1-yl)phenyl]-5-fluoro-N2-(3-ethoxycarbonylmethyleneoxyphenyl)-2,4-pyrimidinediamine] | 0.78 µM | 3.05 µM | – | – |
| O=C(CNc1cccc(Nc2ncc(F)c(Nc3ccc4c(c3)OCCO4)n2)c1)NCCN1CCOCC1 [R950200, N4-(3,4-Ethylenedioxyphenyl)-5-fluoro-N2-[3-(N-2-morpholinoethyleneamino)carbonylmethyleneaminophenyl]-2,4-pyrimidinediamine] | 0.245 µM | > 10 µM | – | – |
| O=C(COc1cccc(Nc2ncc(F)c(Nc3cccc(O)c3)n2)c1)NCC(O)CO (stereo not shown) [R926746, 5-Fluoro-N4-(3-hydroxyphenyl)-N2-[3-(N-2,3-dihydroxypropylamino)carbonylmethyleneoxyphenyl]-2,4-pyrimidinediamine] | 0.989 µM | > 10 µM | – | – |
| CNC(=O)COc1cccc(Nc2ncc(F)c(Nc3cccc(N(C)C)c3)n2)c1 [R950264, N4-(3-Bis-N-methylaminophenyl)-5-fluoro-N2-[3-(N-methylamino)carbonylmethyleneoxyphenyl]-2,4-pyrimidinediamine] | 0.198 µM | > 10 µM | – | – |
| CNC(=O)COc1cc(Nc2ncc(F)c(Nc3ccc4cc[nH]c4c3)n2)ccc1OC [R926752, 5-Fluoro-N4-[(1H)-indol-6-yl]-N2-[4-methoxy-3-[(N-methylamino)carbonylmethyleneoxy]phenyl]-2,4-pyrimidinediamine] | 0.338 µM | > 10 µM | – | – |
| COC(=O)c1cc2ccc(Nc3ncc(F)c(Nc4cccc(O)c4)n3)cc2[nH]1 [R926903] | 0.243 µM | > 10 µM | – | – |
| COCCOc1ccc(Nc2ncc(F)c(Nc3ccc(OCCOC)cc3)n2)cc1 [R926342, N2,N4-Bis[4-(2-methoxyethyleneoxy)phenyl]-5-fluoro-2,4-pyrimidinediamine] | 10 µM | > 10 µM | – | – |

| SMILES | IC50 [1] | IC50 [2] | IC50 ([1]; Homo sapiens, Mast cell) | IC50 ([2]; Homo sapiens, Mast cell) |
| --- | --- | --- | --- | --- |
| CCOC(=O)c1cnc(Nc2cccc(OCC(=O)NC)c2)nc1Nc1cc(OC)cc(OC)c1 [R926801, N4-(3,5-Dimethoxyphenyl)-5-ethoxycarbonyl-N2-[3-(N-methylamino)carbonylmethyleneoxyphenyl]-2,4-pyrimidinediamine] | 10 µM | > 10 µM | – | – |
| Cn1ncc2cc(Nc3ncc(F)c(Nc4ccc5c(c4)NC(=O)C(C)(C)O5)n3)ccc21 [R940338, N4-[(2,2-Dimethyl-4H-benzo[1,4]oxazin-3-one)-6-yl]-5-fluoro-N2-(1-methylindazolin-5-yl)-2,4-pyrimidinediamine] | 0.073 µM | > 10 µM | – | – |
| COc1cccc(CNC(=O)COc2ccc(Nc3ncc(Br)c(Nc4ccc(OCC(=O)NCc5cccc(OC)c5)cc4)n3)cc2)c1 [R925841, N2,N4-Bis[4-[N-(3-methoxybenzylamino)carbonylmethyleneoxy]phenyl]-5-bromo-2,4-pyrimidinediamine] | > 10 µM | > 10 µM | – | – |
| COC(=O)c1ccc(Cn2cc3ccc(Nc4ncc(F)c(Nc5ccc(OC(C)C)cc5)n4)cc3n2)c(OC)c1 [R935338, 5-Fluoro-N4-(4-isopropoxyphenyl)-N2-[2-(2-methoxy-4-carbomethoxybenzyl)indazoline-6-yl]-2,4-pyrimidinediamine] | 0.411 µM | > 10 µM | – | – |
| Fc1cnc(Nc2ccc3[nH]ncc3c2)nc1Nc1ccc2c(c1)OC(F)(F)O2 [R935373, N4-(3,4-Difluoromethylendioxyphenyl)-5-fluoro-N2-(indazoline-5-yl)-2,4-pyrimidinediamine] | 0.274 µM | > 10 µM | – | – |
| COC(=O)COc1cccc(Nc2ncc(F)c(Nc3cc(C)c(O)c(C)c3)n2)c1 [R945139, N4-(3,5-Dimethyl-4-hydroxyphenyl)-5-fluoro-N2-(3-methoxycarbonylmethyleneoxyphenyl)-2,4-pyrimidinediamine] | 1.02 µM | > 10 µM | – | – |
| COC(=O)Cn1ncc2ccc(Nc3ncc(F)c(Nc4ccc5c(c4)OCCO5)n3)cc21 [R935208, N4-(3,4-ethylenedioxyphenyl)-5-fluoro-N2-[1-(methoxycarbonyl)methyl-indazoline-6-yl]-2,4-pyrimidinediamine] | 1.27 µM | > 10 µM | – | – |
| CNC(=O)COc1ccc(Nc2ncc(F)c(Nc3ccc4c(c3)OCCO4)n2)cc1 [R909240, N4-(3,4-Ethylendioxyphenyl)-5-fluoro-[4-(N-methylamino)carbonylmethyleneoxyphenyl]-2,4-pyrimidinediamine] | 0.262 µM | > 10 µM | – | – |
| CNC(=O)COc1cccc(Nc2nc(Nc3ccc4c(c3)OCCO4)ncc2F)c1 [R926776, N2-(3,4-Ethylenedioxyphenyl)-5-fluoro-N4-[3-(N-methylamino)carbonylmethyeleneoxyphenyl]-2,4-pyrimidinediamine] | 0.81 µM | > 10 µM | – | – |
| CC1(C)Oc2ccc(Nc3nc(Cl)ncc3F)cc2NC1=O [Compound R940322] | > 10 µM | > 10 µM | – | – |
| Fc1cnc(Nc2ccc3[nH]ncc3c2)nc1Nc1ccc2[nH]ncc2c1 [R935189, N2,N4-Bis(indazolin-5-yl)-5-fluoro-2,4-pyrimidinediamine] | 0.619 µM | > 10 µM | – | – |
| CNC(=O)COc1cccc(Nc2ncc(F)c(Nc3cccc(OC(=O)N(C(=O)NC(C)C)C(C)C)c3)n2)c1 [R926916] | 1.96 µM | > 10 µM | – | – |
| O=C(NCCN1CCOCC1)c1cc2cc(Nc3ncc(F)c(Nc4ccc5oc(C(=O)NCCN6CCOCC6)cc5c4)n3)ccc2o1 [R950173, N2,N4-Bis[2-(2-N-morpholinoethyleneamoinocarbonyl)-benzofurane-5-yl]-5-fluoro-2,4-pyrimidinediamine] | 2.37 µM | > 10 µM | – | – |
| Oc1cccc(Nc2nc(Nc3cc(Br)cc(C(F)(F)F)c3)ncc2F)c1 [R926846, N2-(3-Bromo-5-trifluorophenyl)-5-fluoro-N4-(3-hydroxyphenyl)-2,4-pyrimidinediamine] | 0.86 µM | 6.26 µM | – | – |
| CCCCNC(=O)COc1ccc(Nc2ncc(C#N)c(Nc3ccc(OCC(=O)NCCCC)cc3)n2)cc1 [R925860, N2,N4-Bis[4-(N-n-butylamino)carbonylmethyleneoxyphenyl]-5-cyano-2,4-pyrimidinediamine] | > 10 µM | > 10 µM | – | – |
| COC(=O)c1cnc(Nc2ccc(OCC(=O)N3CCCC3)cc2)nc1Nc1ccc(OCC(=O)N2CCCC2)cc1 [R926559, 5-Methoxycarbonyl-N2,N4-bis[4-(N-pyrrolidino)carbonylmethyleneoxyphenyl)-2,4-pyrimidinediamine] | 7.7 µM | > 10 µM | – | – |
| CNCCNC(=O)CNc1cccc(Nc2ncc(F)c(Nc3cccc(NCCO)c3)n2)c1 [R950234, 5-Fluoro-N4-[3-(2-hydroxyethylamino)phenyl]-N2-[3-[N-(2-methylamino)ethylamino]carbonylmethyleneaminophenyl]-2,4-pyrimidinediamine] | 10 µM | > 10 µM | – | – |
